Results taken from ChEMBL document CHEMBL1133941, “Drug design, synthesis, and evaluation of a non-sugar-based selectin antagonist” (Bioorg Med Chem Lett, 2001).

Tests used:
[1] = biological target: T1, P-selectin (Homo sapiens) (UniProt P16109); test: Inhibitory activity was evaluated In vitro in Selectin P mediated cell adhesion assay at a concentration of 30uM
T1 sequence (whole entry): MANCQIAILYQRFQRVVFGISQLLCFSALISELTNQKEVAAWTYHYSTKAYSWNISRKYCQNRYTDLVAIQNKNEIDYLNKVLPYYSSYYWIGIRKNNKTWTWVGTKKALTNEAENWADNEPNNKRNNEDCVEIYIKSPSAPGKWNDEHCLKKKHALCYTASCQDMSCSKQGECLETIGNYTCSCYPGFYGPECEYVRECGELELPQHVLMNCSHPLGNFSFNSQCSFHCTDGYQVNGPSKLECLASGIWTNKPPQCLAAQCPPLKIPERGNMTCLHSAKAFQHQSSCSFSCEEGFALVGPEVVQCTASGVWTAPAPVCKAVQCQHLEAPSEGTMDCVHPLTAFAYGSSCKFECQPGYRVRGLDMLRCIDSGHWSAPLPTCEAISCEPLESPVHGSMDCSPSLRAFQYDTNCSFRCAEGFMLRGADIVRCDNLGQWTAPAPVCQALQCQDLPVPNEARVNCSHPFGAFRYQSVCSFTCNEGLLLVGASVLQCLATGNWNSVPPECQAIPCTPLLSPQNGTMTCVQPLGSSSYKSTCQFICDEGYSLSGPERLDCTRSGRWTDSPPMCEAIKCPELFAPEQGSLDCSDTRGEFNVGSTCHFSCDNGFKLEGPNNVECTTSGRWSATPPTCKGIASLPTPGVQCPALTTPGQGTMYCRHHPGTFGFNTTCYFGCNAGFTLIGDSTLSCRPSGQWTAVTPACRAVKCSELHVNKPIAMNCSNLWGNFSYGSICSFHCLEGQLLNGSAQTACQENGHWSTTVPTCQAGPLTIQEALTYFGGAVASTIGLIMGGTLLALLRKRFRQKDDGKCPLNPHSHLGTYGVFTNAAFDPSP

[2] = Cell cytotoxicity of compound was evaluated In vitro in P-selectin mediated cell adhesion assay at a concentration of 30 uM; format: functional
P-selectin = biological target: T2, P-selectin (Homo sapiens, UniProt P16109); test: Inhibitory activity of compound against Selectin P/sLex binding was determined
T2 sequence (P16109 whole entry): T1 sequence (whole entry)

## CCCCCCCCCCCCCCC(CCCCCCCCCCCCCC)CNC(=O)c1cc(CSC2OC(C)C(O)C(O)C2O)cc(C(=O)NC(CCC(=O)O)C(=O)NC)c1 (centres undefined)
[1]
  inhibition: -0.9%
[2]
  Death: 5.3%

## CCCCCCCCCCCCCCC(CCCCCCCCCCCCCC)CNC(=O)c1cc(CSC2OC(C)C(O)C(O)C2O)cc(C(=O)O)c1 (centres undefined)
P-selectin
  IC50: 10.6 µM
[1]
  inhibition: 75.7%
[2]
  Death: 1.9%

## CCCCCCCCCCCCCCC(CCCCCCCCCCCCCC)CNC(=O)c1cc(CSC2OC(C)C(O)C(O)C2O)cc(C(=O)NCCC(=O)O)c1 (centres undefined)
[1]
  inhibition: 31.3%
[2]
  Death: 2.8%

## CCCCCCCCCCCCCCC(CCCCCCCCCCCCCC)C(=O)N[C@@H](CO[C@@H]1O[C@@H](C)[C@@H](O)[C@H](O)[C@@H]1O)C(=O)N[C@@H](CCC(=O)O)C(=O)NC
[1]
  inhibition: 42.8%
[2]
  Death: 1.7%
